{"source": "patent US20200038600A1", "about": "“DEVICE AND METHOD FOR DRUG DELIVERY” (Insuline Medical Ltd., priority 2016, published 2020)", "key": {"albumin": {"target": "T1, albumin (Homo sapiens, UniProt P02768)", "T1 construct": "host or cells: endogenous albumin of the bloodstream", "T1 sequence (P02768 25-609)": "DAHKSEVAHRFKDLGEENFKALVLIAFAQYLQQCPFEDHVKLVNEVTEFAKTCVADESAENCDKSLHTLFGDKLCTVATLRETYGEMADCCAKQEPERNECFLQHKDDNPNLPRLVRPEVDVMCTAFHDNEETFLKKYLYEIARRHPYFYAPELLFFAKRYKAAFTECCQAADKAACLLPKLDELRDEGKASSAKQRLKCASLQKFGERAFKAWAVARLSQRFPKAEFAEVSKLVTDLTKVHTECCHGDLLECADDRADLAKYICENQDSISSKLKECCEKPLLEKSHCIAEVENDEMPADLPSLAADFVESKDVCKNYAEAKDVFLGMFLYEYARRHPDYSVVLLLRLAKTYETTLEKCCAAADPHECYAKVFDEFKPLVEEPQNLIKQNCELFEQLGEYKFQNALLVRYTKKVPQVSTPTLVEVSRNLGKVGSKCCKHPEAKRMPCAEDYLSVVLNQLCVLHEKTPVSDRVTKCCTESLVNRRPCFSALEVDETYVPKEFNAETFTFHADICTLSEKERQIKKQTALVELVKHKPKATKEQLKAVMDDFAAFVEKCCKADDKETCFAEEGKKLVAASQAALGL", "conditions": "once in the circulation; cited from earlier work"}, "[1]": {"conditions": "cited from earlier work"}, "Type I diabetes subjects": {"test_system": "Type I diabetes subjects", "test": "Effect of heating or cooling the injection site on blood glucose after basal insulin (LANTUS) injection (FIG. 19)", "assay_type": "in vivo, human", "conditions": "for ΔBG_2H, blood glucose excursion change from control / ΔBG_3H, blood glucose excursion change from control / ΔBG_4H, blood glucose excursion change from control: fasting", "source_text": "FIG. 19 is a graph showing results of a study of the effect of applying a treatment (cooling or heating) for regulating the absorption of a drug (insulin) on an analyte level (insulin and/or blood glucose level) over time measured in minutes.\nThe experiment tests the effect of treatment (e.g. cooling and heating) at the injection site on insulin and glucose blood levels during nine hours following long acting, basal insulin (LANTUS) injection. The tested treatments included heating the skin over the injection site to 40° C. and cooling the skin over the injection site to 20° C. Each subject underwent three procedures during three different days including control, heating and cooling in random order, thus each subject served as his/her own control.\nType I diabetes subjects under fasting conditions injected their usual basal insulin dose which is intended to keep their blood glucose level stable. Two hours after injection a stabilization period commenced in which a subject's blood glucose levels was adjusted to a target blood glucose level using IV insulin or IV glucose administration. The starting glucose level was 150 mg/dl±20 mg/dl. […] In the two testing days the heating or cooling elements were attached to the injection site and heating or cooling was started for a period of four hours and no intervention (besides the treatment, i.e. cooling or heating) was performed during this period. The procedure continued for another two hours without intervention. On the control day no intervention or treatment was applied. During the whole procedure blood samples were collected for blood glucose and insulin concentration measurements every 20 minutes. Safety limits of the study were 75 mg/dl as the low limit, and 250 mg/dl as the high limit. If the subject's blood glucose level was below 75 mg/dl, then a 10% glucose solution was given intravenously to increase the subject's blood glucose level. If the subject's blood glucose level was above 250 mg/dl then IV insulin was given to reduce blood glucose level."}, "diabetes subjects": {"test_system": "diabetes subjects", "test": "Effect of cooling the injection site on blood glucose after basal insulin (LANTUS) injection (FIG. 20)", "assay_type": "in vivo, human", "description": "FIG. 20 is a graph showing results of a study of the effect of applying cooling for regulating the absorption of a drug (insulin) on an analyte level (insulin and/or blood glucose level) over time measured in minutes.\nThe diabetes subjects under fasting conditions injected their usual basal insulin dose (LANTUS) which is intended to keep their blood glucose level stable. […] Cooling commenced at 2 hours and was applied for 3 hours successfully raising he blood glucose level back to 142 mg/dl."}}, "note": "Read-outs that look alike come from different tables or passages of the source."}
{"substance": "insulin detemir", "values": [{"measurement": "albumin bound", "setting": "albumin", "result": 98, "unit": "%"}]}
{"substance": "insulin glargine [LANTUS]", "values": [{"measurement": "solubility", "setting": "[1]; neutral pH (pH 7.4)", "result": "forms precipitates"}, {"measurement": "solubility", "setting": "[1]; pH 4", "result": "soluble"}, {"measurement": "increase in blood glucose levels", "setting": "Type I diabetes subjects; applying cooling to the injection site (text b295)", "result": 25, "unit": "mg/dL"}, {"measurement": "average decrease in blood glucose compared to no treatment at all", "setting": "Type I diabetes subjects; applying heat to the injection site (text b295)", "result": 40, "unit": "mg/dL"}, {"measurement": "ΔBG_2H, blood glucose excursion change from control", "setting": "Type I diabetes subjects; cooling skin over injection site to 20° C., after 2 hours", "result": "+30 mg/dl"}, {"measurement": "ΔBG_3H, blood glucose excursion change from control", "setting": "Type I diabetes subjects; cooling skin over injection site to 20° C., after 3 hours", "result": "+42 mg/dl"}, {"measurement": "ΔBG_4H, blood glucose excursion change from control", "setting": "Type I diabetes subjects; cooling skin over injection site to 20° C., after 4 hours", "result": "+50 mg/dl"}, {"measurement": "blood glucose levels over time (FIG. 19)", "setting": "Type I diabetes subjects; cooling the injection site", "result": "increased"}, {"measurement": "increase in blood glucose compared to no intervention", "setting": "Type I diabetes subjects; cooling the injection site, after 2 hours", "result": "about 42 mg/dl"}, {"measurement": "increase in blood glucose compared to no intervention", "setting": "Type I diabetes subjects; cooling the injection site, after 3 hours", "result": "~59", "unit": "mg/dL"}, {"measurement": "increase in blood glucose compared to no intervention", "setting": "Type I diabetes subjects; cooling the injection site, after 4 hours", "result": "~65", "unit": "mg/dL"}, {"measurement": "ΔBG_2H, blood glucose excursion change from control", "setting": "Type I diabetes subjects; heating skin over injection site to 40° C., after 2 hours", "result": -29, "unit": "mg/dL"}, {"measurement": "ΔBG_3H, blood glucose excursion change from control", "setting": "Type I diabetes subjects; heating skin over injection site to 40° C., after 3 hours", "result": -32, "unit": "mg/dL"}, {"measurement": "ΔBG_4H, blood glucose excursion change from control", "setting": "Type I diabetes subjects; heating skin over injection site to 40° C., after 4 hours", "result": -32, "unit": "mg/dL"}, {"measurement": "blood glucose levels over time (FIG. 19)", "setting": "Type I diabetes subjects; heating the injection site", "result": "decreased"}, {"measurement": "average decrease in blood glucose compared to no intervention", "setting": "Type I diabetes subjects; heating the injection site, after 2 hours", "result": 15, "unit": "mg/dL"}, {"measurement": "average decrease in blood glucose compared to no intervention", "setting": "Type I diabetes subjects; heating the injection site, after 3 hours", "result": 21, "unit": "mg/dL"}, {"measurement": "average decrease in blood glucose compared to no intervention", "setting": "Type I diabetes subjects; heating the injection site, after 4 hours", "result": 26, "unit": "mg/dL"}, {"measurement": "blood glucose levels over time (FIG. 19)", "setting": "Type I diabetes subjects; no intervention applied to the injection site", "result": "stable around the base line"}, {"measurement": "blood glucose level", "setting": "diabetes subjects; after cooling applied for 3 hours, commenced at 2 hours", "result": 142, "unit": "mg/dL"}, {"measurement": "initial blood glucose level", "setting": "diabetes subjects; at injection, fasting", "result": 143, "unit": "mg/dL"}, {"measurement": "blood glucose level", "setting": "diabetes subjects; within 2 hours after injection, before cooling", "result": 94, "unit": "mg/dL"}]}
